Target: T1, NEDD8-activating enzyme (NAE), Uba3 subunit (Homo sapiens, UniProt Q8TBC4)
T1 construct: His-APP-BP1, His-Uba3 (kit enzymes); with APPBP1 (NAE1); Ubc12 and NEDD8 present in the assay
Experiment: in vitro NEDD8 conjugation assay with purified E1 (APPBP1/Uba3), Ubc12 and NEDD8; non-reducing western blot of Ubc12-NEDD8
Type: biochemical

T1 sequence (Q8TBC4 2-463): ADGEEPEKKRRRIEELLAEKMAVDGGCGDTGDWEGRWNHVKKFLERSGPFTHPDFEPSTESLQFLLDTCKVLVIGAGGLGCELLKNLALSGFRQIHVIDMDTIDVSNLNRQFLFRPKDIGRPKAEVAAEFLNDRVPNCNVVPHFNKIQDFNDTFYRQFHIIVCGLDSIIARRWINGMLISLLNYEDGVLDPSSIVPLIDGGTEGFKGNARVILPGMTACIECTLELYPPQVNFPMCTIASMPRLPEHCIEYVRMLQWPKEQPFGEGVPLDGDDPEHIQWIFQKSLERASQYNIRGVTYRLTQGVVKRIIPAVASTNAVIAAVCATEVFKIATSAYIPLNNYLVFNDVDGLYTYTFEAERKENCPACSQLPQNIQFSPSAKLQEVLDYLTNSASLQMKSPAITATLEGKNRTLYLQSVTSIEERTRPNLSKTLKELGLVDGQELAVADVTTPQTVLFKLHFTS
T1 sequence (Q13564 2-534 partner): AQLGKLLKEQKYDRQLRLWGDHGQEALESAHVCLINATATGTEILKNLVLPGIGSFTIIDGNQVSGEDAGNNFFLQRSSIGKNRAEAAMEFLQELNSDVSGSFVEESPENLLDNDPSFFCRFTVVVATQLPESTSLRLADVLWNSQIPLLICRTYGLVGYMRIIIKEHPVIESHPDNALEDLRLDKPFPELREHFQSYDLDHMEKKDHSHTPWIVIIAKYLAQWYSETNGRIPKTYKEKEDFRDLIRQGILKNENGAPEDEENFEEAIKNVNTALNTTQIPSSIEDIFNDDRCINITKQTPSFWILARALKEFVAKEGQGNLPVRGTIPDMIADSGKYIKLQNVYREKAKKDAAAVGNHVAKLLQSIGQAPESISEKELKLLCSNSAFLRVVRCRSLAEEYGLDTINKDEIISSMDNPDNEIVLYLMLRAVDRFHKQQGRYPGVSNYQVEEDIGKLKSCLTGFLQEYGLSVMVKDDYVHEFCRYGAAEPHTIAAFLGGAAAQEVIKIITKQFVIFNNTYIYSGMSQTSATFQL
T1 sequence (P61081 whole entry partner): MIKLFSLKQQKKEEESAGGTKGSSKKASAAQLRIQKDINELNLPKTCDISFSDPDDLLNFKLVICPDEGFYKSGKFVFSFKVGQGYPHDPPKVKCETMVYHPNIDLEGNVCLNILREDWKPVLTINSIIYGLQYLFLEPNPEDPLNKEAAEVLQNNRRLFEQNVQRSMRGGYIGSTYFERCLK
T1 sequence (Q15843 1-76 partner): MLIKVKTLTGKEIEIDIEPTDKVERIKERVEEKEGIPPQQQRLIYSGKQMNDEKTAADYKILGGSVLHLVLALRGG

With `COc1ccc(/C=C/C(=O)c2c(O)cc(OC)cc2OC)cc1` [FKA, flavokawain A] the IC50 was ~5 µM.

From PMC4747190, “Flavokawain A induces deNEDDylation and Skp2 degradation leading to inhibition of tumorigenesis and cancer progression in the TRAMP transgenic mouse model” (Oncotarget, 2015)
